The results in this text go back to a melting point compilation (Tetko et al.; mined from patent text by program, amines drawn as free bases though some values may be those of a salt).

The structures appear in SMILES notation.

Molecule `O=C1CCC(=O)N1CC#CCn1ccnc1` showed a melting point of 120 to 122 °C. The molecule `CCN(CC)CCCOc1ccc(C[C@H](NC(=O)[C@@H]2CCCN2S(=O)(=O)c2ccc(C)cc2)C(=O)O)cc1` came in with a melting point of 76 to 82 °C. As for `CC1=C(C(=O)O)C(c2ccccc2Cl)C(c2cccs2)=NN1` (centres undefined), the melting point was 188 °C. Consider `Cc1ccccc1C(c1c[nH]cn1)c1ccccc1C`, for which the melting point was in the range of 228 to 231 °C. As for `CC#CC(C)(C)NC(=O)C(COC)Oc1cc(Cl)cc(Cl)c1` (centres undefined), the melting point was 107 to 110 °C. Then `CCCSC1(C(F)(F)F)CN(C2CC2)C(=O)Nc2ccc(Cl)cc21` (centres undefined), with 150 to 151 °C; and `O=C(Nc1cccc(F)c1)NC1CCN(S(=O)(=O)c2cccc(C(F)(F)F)c2)CC1`, with 86 to 88 °C. For the molecule `COC(=O)c1ncccc1Br`, the melting point lay in the range of 34 to 36 °C. `CC(O)(COc1ccc(C(=O)c2ccccc2)cc1)C(F)(F)F` (centres undefined): the melting point is 70 to 73 °C. The molecule `CC(=O)OC1CSC(Oc2cncc(-c3ccc(N4CCCCC4)cc3)c2)C(OC(C)=O)C1OC(C)=O` (centres undefined) yielded a melting point of 196 °C. Regarding `O=C(NCC#CCN1CCOCC1)N1c2ccccc2-c2noc3c2C1CCC3` (centres undefined), the melting point stood at 186 °C. For the molecule `O=C(O)c1csnc1-c1ccc(Cl)cc1`, the melting point is 182 °C.

For the molecule `c1cc2cc[nH]c2cn1`, the melting point is 132 to 134 °C. As to `O=c1ccc(S(=O)(=O)n2cccc2)n[nH]1`, the melting point was 140 to 145 °C. Molecule `CON(C)C(=O)c1cc2c3c(c1)c(-c1cccc(Cl)c1)cc(=O)n3CC2` displayed a melting point of 162 °C. `O=C1c2ccccc2S(=O)(=O)N1CCCOc1ccccc1` showed a melting point of 83 to 86 °C. For `c1ccn(Nc2ccncn2)c1`, the melting point was in the range of 134 to 136 °C. The molecule `COc1cc(OC)cc(C(=CC#N)c2ccc(OC)c([N+](=O)[O-])c2)c1` yielded a melting point of 122 to 124 °C.

Consider `C[C@H]1C[C@@](O)(c2cccc(Sc3ccc4c(c3)CCC(=O)N4)c2)CCO1`, for which the melting point is 180 to 181 °C.

As to `CCNc1nc(Cc2cc(OC)c(OC)c(OC)c2)nc2sc(C#N)c(C)c12`, the melting point is 164 to 165 °C. `O=C(NC(CC12CC3CC(CC(C3)C1)C2)NC(=N[N+](=O)[O-])Nc1cccnc1)c1ccc(Cl)cc1` (centres undefined) returned a melting point of 219 to 220 °C. The molecule `CNC(=NC#N)NCCSCc1cc(C)c(CN(C)C)o1` yielded a melting point of 86 to 88 °C. The molecule `COC(=O)[C@H](Cc1c(Br)n(C(=O)OC(C)(C)C)c2cc(Br)c(OC)c(Br)c12)NC(C)=O` had a melting point of 126 to 128 °C. Take `Cc1cccc(OC(=O)n2c3c(c(=O)n(C4CCCCO4)c2=O)CCC3)c1` (centres undefined): the melting point was found to be 155 °C. `COCOc1ccc(-n2c(SCc3ccc(Br)cc3)nc3ccc(Cl)cc32)cc1` displayed a melting point of 123 to 124 °C. Then `Cc1oc(-c2ccccc2)nc1COc1ccc(CCC2SC(=O)NC2=O)cc1` (centres undefined), with 146 to 147 °C; and `OCc1ccc2c(Br)cccc2c1`, with 76 to 77 °C. Molecule `CN(C)Cc1c(-c2ccc(OC(F)F)c(OC3CC3)c2)[nH]c2cn[nH]c(=O)c12` showed a melting point of 154 to 157 °C.

As to `COC(=O)c1ccccc1NC(=O)CN1CCN(C(=O)c2ccc(OC)c(OC)c2)CC1`, the melting point lay in the range of 168 to 169 °C. Then `CC(=O)c1ccc(C(=O)CCl)s1`, with 94 to 95 °C. `Nc1nc2ccccc2c2c1ncn2CCOCc1cc2ccccc2o1` had a melting point of 201 to 203 °C.

In turn, `CSc1nn2c(N(C)C)cc(C)nc2c1S(=O)(=O)c1ccc(Cl)cc1` had a melting point of 221 to 223 °C. Take `COc1ccn2c(C)c(CCc3ccc4nc(N)oc4c3)nc2c1`: the melting point fell in the range of 220 to 221 °C. `COc1ccccc1C(=O)N1CCCC(=O)c2ccc(Cl)cc2CCC1=O`: the melting point turned out to be 179 °C. Then `CCCCC(C(=O)OCC)(C(=O)OCC)c1nc(C)nc2c1c(SC)nn2-c1c(Cl)cc(Cl)cc1Cl`, with 148 to 150 °C; and `Fc1ccc(-n2nc(-c3cccc(C(F)(F)F)c3)c3ncccc3c2=S)cc1`, with 214 to 215 °C.

Regarding `CC(C)C1(C)NC(c2ncccc2CO)=NC1=O` (centres undefined), the melting point was in the range of 145 to 149 °C. Then `CCOCc1nc2c(N)nc3ccccc3c2n1CCCCCS(N)(=O)=O`, with 176 to 178 °C. For the molecule `O=C(O)Cc1cc(Cl)ccc1Oc1ccccc1`, the melting point lay within 119 to 123 °C. In the case of `COC(=O)[C@H]1CC[C@H](n2ccn(-c3ccc(OCc4ccccc4)cc3)c2=O)CC1`, the melting point lay within 183 to 185 °C. The value for `O=C(c1ccc(Cl)cc1)c1ccc(Cl)[nH]1` was 210 to 211 °C; that for `COc1ccc(C=NNC(=N)N)cc1OC1CCCC1` was 100 to 103 °C; that for `COc1ccc(CCNC(=O)CC(NC(=O)CCNC(=O)c2ccc(C(=N)N)cc2)C(=O)O)cc1` (centres undefined) was 217 °C. The molecule `COc1ccc2c(c1)c(Cc1cc(=O)n(-c3cnc4ccccc4n3)[nH]1)c(C)n2C(=O)c1ccc(Cl)cc1` registered a melting point of 231 to 233 °C. For the molecule `Cc1cc(-c2ccc(Cl)cc2)nc(-n2cnc(-c3ccc(S(N)(=O)=O)cc3)c2)n1`, the melting point came out at 312 °C.

Regarding `CCCc1ccc(-c2ccc(=O)[nH]n2)cc1`, the melting point was in the range of 180 to 182 °C. The value for `COC(=O)C(=O)NCC(C#Cc1ccccc1)c1ccc(OC)c(OC2CCCC2)c1` (racemic) was 120 to 124 °C; that for `O=c1ccn(-c2cccc(C(F)(F)F)c2)nc1-c1c(F)cnn1-c1ccccc1` was 156 to 158 °C; that for `CCCOc1nsc(NC(=O)C(C)C)c1C(N)=O` was 153 to 154 °C. `Cc1ccnc(S(=O)(=O)c2ccccc2)c1` returned a melting point of 128 to 129 °C.

`CC(=O)NC(=O)C(SC(C)=O)c1ccccc1` (centres undefined) showed a melting point of 96 °C.

For the molecule `O=[N+]([O-])CCN1CCC(n2ccc(-c3ccc(F)cc3)c2-c2ccncc2)CC1`, the melting point was 172 to 173 °C. The molecule `Cc1cc2c(s1)Nc1ccccc1N=C2N1CCN(C)CC1` gave a melting point of 190 to 193 °C.

`CC1(C)Oc2ccc(C#N)cc2[C@@H](NC(=O)Nc2cccc(-c3nnn[nH]3)c2)[C@@H]1O` registered a melting point of 204 to 208 °C. In the case of `OC(CCl)CNc1nc2ccnc(-c3cccc(C(F)(F)F)c3)n2n1` (centres undefined), the melting point fell in the range of 141 to 142 °C. `O=C(Nc1ccc(C(=O)N2CCc3cn[nH]c3-c3ncccc32)c(Cl)c1)c1ccccc1-c1ccccc1`: the melting point lay within 181 to 192 °C. Regarding `CCCNC(=O)C(C)Cc1ccc2c(c1)c(Cc1ccc(C(=O)O)cc1OC)cn2CCC` (single isomer, unassigned; (-)), the melting point lay within 85 to 93 °C. `Cc1cc(Br)nc(Br)c1` showed a melting point of 77 °C. In the case of `COC(=O)C(CO)N(Cc1ccccc1N)S(=O)(=O)c1ccc(OC)cc1` (centres undefined), the melting point was 138 to 140 °C.

The molecule `Cn1nc(C#N)c(Nc2ccc(Br)cc2[N+](=O)[O-])n1` had a melting point of 162 to 164 °C.

Regarding `O=C1c2ccccc2C(Nc2ccccc2)N1CCCN1CC=C(c2ccccc2)CC1` (centres undefined), the melting point worked out at 119 °C. `CNC(=O)c1ccc(C=CC(=O)OC)cc1` displayed a melting point of 210 °C.

`Cc1cc(OCc2cccc(C(=O)O)c2)c([N+](=O)[O-])cc1S(=O)(=O)N(C)C` registered a melting point of 220 to 221 °C. In turn, `CC(C)CC1(C(CCNC(=O)c2ccc(F)c(F)c2)C(=O)NO)CCN(CCc2ccccc2)C1=O` (centres undefined) gave a melting point of 132 to 134 °C.

For the molecule `COc1cc(OCc2ccccn2)ccc1/C=C/c1cc(/C=C/c2cc3ccccc3s2)n[nH]1`, the melting point is 231 to 232 °C. As to `CCNS(=O)(=O)c1ccc(C(O)c2ccc3c(c2)C(C)(C)CCC3(C)C)cc1` (centres undefined), the melting point is 175 °C. For the molecule `CCC1OC(=O)CC(O)C(C)C(OC2OC(C)CC(N(C)C)C2O)C(CC=O)CC(C)C(=O)C=CC2(C)OC2C1C` (centres undefined), the melting point fell in the range of 128 to 130 °C. The molecule `CCc1n[nH]c(CC)c1CCCCCOc1ccc(OC)cc1Cl` gave a melting point of 80 to 83 °C. The molecule `CCOC(=O)c1ccc(-c2nnc(-c3ccccc3N)o2)cc1` came in with a melting point of 174 to 175 °C. As to `Oc1cccc(-n2nnnc2S)c1`, the melting point lay within 176 to 178 °C.

In the case of `CCOC(=O)C1=CC2(CCC1S(=O)(=O)Nc1ccc(F)cc1Cl)OCCS2` (centres undefined), the melting point lay in the range of 133 to 134 °C. `CN1CS(=O)c2ccccc21` (centres undefined) had a melting point of 70 to 73.5 °C.

`CS(=O)(=O)c1nc2ccccn2c1S(N)(=O)=O` had a melting point of 214 to 216 °C. In turn, `C#CCCCOc1cc(/C=C/C(=O)Nc2ccccc2C(=O)O)ccc1OC` registered a melting point of 154 to 156 °C. `CCOC(=O)Cc1nc2cc(C)ccc2o1`: the melting point is 68 to 69 °C.

With `COC(=O)C1=Cc2cc(Br)ccc2N(C(=O)OC)CC1`, the melting point lay in the range of 135 to 136 °C. In turn, `CCOC(=O)c1c(C)nc(-c2ccccc2)nc1-c1ccc(OC(C)=O)c([N+](=O)[O-])c1` yielded a melting point of 147 to 148 °C. For `CC=Cc1c(NC(=O)C(F)(F)F)ccc2c(=O)cc(C(=O)OCC)oc12`, the melting point fell in the range of 140 to 141 °C.

For the molecule `O=C(O)c1ccc(NC(=O)[C@H](Cc2ccc(-c3ccccc3)cc2)NCP(=O)(O)O)cc1`, the melting point lay in the range of 270 to 274 °C.

Molecule `CN(C)CC1CCCCN1CC(=O)N1c2ccccc2NC(=O)c2c1ccn2C` (centres undefined) showed a melting point of 163 to 165 °C.

For `Cc1cn(CC(=O)N(CCNC(=O)OC(C)(C)C)CC(=O)Oc2c(F)c(F)c(F)c(F)c2F)c(=O)[nH]c1=O`, the melting point was in the range of 174 to 176 °C. Molecule `CCS(=O)(=O)c1nn(-c2ccccc2)c(=O)c2c(N)scc12` showed a melting point of 190 to 191 °C. Then `C=COC(=O)N1CC2C(=O)C=CC(c3ccccc3)(c3ccccc3)C2C1` (centres undefined), with 162 °C; and `O=C(O)[C@@H]1[C@H](C(=O)O)N(Cc2ccccc2)C(=O)N1Cc1ccccc1`, with 173 °C; and `Cn1cc(C(=O)NCc2ccc(Cl)cc2)c(=O)c2cc(CC3CCOCC3)cc(I)c21`, with 175 to 177 °C. In the case of `Cc1cc(Oc2ncc(Cl)cc2Cl)n[nH]1`, the melting point was in the range of 109 to 111 °C. The value for `Cc1nc2ccc3c(c2s1)C(=O)CC3` was 163 to 165 °C. The value for `CC(C)NC(=O)N1CCc2[nH]cnc2C1c1ccccc1` (centres undefined) was 245 °C; that for `Cc1ccc(S(=O)(=O)OCC2CCc3cc(Br)ccc3C2)cc1` (centres undefined) was 87 to 89 °C.
